Measurements published in US10463664B2, “Inhibitors of HSV nucleotidyl transferases and uses therefor” (Saint Louis University, priority 2013, dated 2019).

System: HSV-2
Experiment: Time-of-addition experiment, HSV-2 in Vero cells
Assay type: cell-based, herpes simplex virus 2
Details: 10 μM
Procedure: The inventors next varied the time post-infection that the inhibitors were added to begin defining the stage(s) of viral replication targeted by the inhibitors. […] The cells were incubated until 24 hours post-infection and then infectious viral titers were determined by plaque assay and viral DNA production was determined by quantitative PCR (FIG. 5).

Nc1nc2c(ncn2COCCO)c(=O)[nH]1 [ACV, Acyclovir, reference compound]
Delay of addition with no effect on inhibition of DNA replication or viral accumulation: ≤ 5 hours post-infection | Time of addition at which compound becomes essentially ineffective: 12 hours post-infection
